{
  "source": "patent US20090312433A1",
  "about": "“TREATMENT OF VR1-ANTAGONIST-INDUCED INCREASE IN BODY TEMPERATURE WITH AN ANTIPYRETIC AGENT” (Amgen Inc., priority 2005, published 2009)",
  "key": {"rats": {"system": "rats", "test": "Body temperature in rats after TRPV1 antagonist followed by acetaminophen", "assay_type": "in vivo", "protocol": "In this study rats were first treated with vehicle (Oraplus/5% Tween 80) or a TRPV1 antagonist (Compound A; 3 mg/kg, p.o.). Following a 120 min period, separate groups of rats were then administered vehicle (Oraplus/5% Tween 80) or acetaminophen (300 mg/kg, p.o.). Body temperature was then measured for an additional 120 min."}, "TRPV1 [1]": {"system": "TRPV1", "settings": "different species; cited from earlier work"}, "TRPV1 [2]": {"system": "TRPV1", "settings": "cited from earlier work"}},
  "note": "Entries after “also recorded” stand apart in the source; their conditions may differ.",
  "data": [
    {"compound": "CC(=O)Nc1ccc(O)cc1", "note": "[acetaminophen]", "values": [
      {"measurement": "body temperature after TRPV1 antagonist followed by acetaminophen", "setting": "rats; Compound A 3 mg/kg p.o., then after 120 min acetaminophen 300 mg/kg p.o. (Compound A+Acet group), measured for an additional 120 min", "result": "reversed; also recorded: decreased to levels observed in the control group"},
      {"measurement": "body temperature, acetaminophen alone", "setting": "rats; vehicle, then after 120 min acetaminophen 300 mg/kg p.o. (Veh+Acet group)", "result": "decreased"}
    ]},
    {"compound": "CC(=O)Nc1nc2c(Oc3cc(-c4ccc(C(F)(F)F)cc4NC(=O)OC(C)(C)C)ncn3)cccc2s1", "note": "[Compound A, {2-[6-(2-acetylamino-benzothiazol-4-yloxy)-pyrimidin-4-yl]-5-trifluoromethyl-phenyl}-carbamic acid tert-butyl ester]", "values": [
      {"measurement": "body temperature following treatment with TRPV1 antagonist", "setting": "rats; 3 mg/kg, p.o., 120 min period after dosing", "result": "significant increase in body temperature"},
      {"measurement": "body temperature compared to the control group (Veh+Veh)", "setting": "rats; Compound A 3 mg/kg p.o. followed after 120 min by vehicle (Compound A+Veh group), measured for an additional 120 min", "result": "remained elevated"}
    ]},
    {"compound": "COc1cc(CNC(=O)CCCC/C=C/C(C)C)ccc1O", "note": "[capsaicin]", "values": [
      {"measurement": "hypothermia induced by TRPV1 agonists", "setting": "TRPV1 [1]", "result": "induce hypothermia"},
      {"measurement": "hypothermia in mice lacking TRPV1", "setting": "TRPV1 [2]", "result": "did not induce hypothermia"}
    ]},
    {"compound": "C=C(C)[C@]12C[C@@H](C)[C@@]34O[C@](Cc5ccccc5)(O[C@@H]1[C@@H]3C=C(COC(=O)Cc1ccc(O)c(OC)c1)C[C@]1(O)C(=O)C(C)=C[C@@H]41)O2", "note": "[RTX, resiniferatoxin]", "values": [
      {"measurement": "hypothermia induced by TRPV1 agonists", "setting": "TRPV1 [1]", "result": "induce hypothermia"}
    ]}
  ]
}
